# Test results as given in US6399633B1, “Use of 4-H-1-benzopryan-4-one derivatives as inhibitors of smooth muscle cell proliferation” (priority 1999, dated 2002).
# “Also recorded” adds a separate entry of the source. Like-named read-outs stand apart in the source and are kept apart here.
# Assays:
# [1] = tested on: neointimal formation; conditions: instilled into the carotid artery at the time of injury; cited from earlier work
# [2] = tested on: Erk1 (p44 MAP kinase) and Erk2 (p42 MAP kinase); assay: Western blot of phosphorylated Erk1/Erk2 in HASMC; format: cell-based, human; conditions: growth factors 30 min
# Protocol: (§1) Western blot analysis—Quiescent HASMC were treated in the presence or absence of growth factors and/or flavopiridol as indicated. Western blot analysis was performed as previously described^18. The primary antibodies were: a polyclonal anti-human cyclin D1 antibody (M-20, Santa Cruz), a monoclonal anti-human proliferating cell nuclear antigen (PCNA) antibody (PC10, Sigma), a phosphorylation-specific p44/42 (Erk1/Erk2) MAP kinase monoclonal antibody (New England Biolabs), and a monoclonal anti-Rb antibody (G3-245, Pharmigen), which recognizes the phosphorylated (pRb) and highly phosphorylated (ppRb) Rb species. For immunoblotting studies, experiments were repeated at least three times.
# [3] = tested on: Erk1 (p44 MAP kinase) and Erk2 (p42 MAP kinase); assay: In-gel kinase assay (myelin basic protein) in HASMC; format: cell-based, human; conditions: growth factors 30 min
# Protocol: In-gel kinase assay—Quiescent HASMC were treated with growth factors for 30 min and total cell lysates were prepared as described for Western blotting. In some experiments, HASMC were pretreated for 60 min with 30 μmol/L PD98059, flavopiridol, or vehicle. Equal amounts of proteins (50 μg/lane) were resolved on a polyacrylamide gel that was copolymerized with 350 μg/ml myelin basic protein. The gel was treated with [γ-^32P]ATP and autoradiography was performed as described^19.
# [4] = tested on: Human aortic smooth muscle cells (HASMC); assay: Cell proliferation ELISA (BrdU incorporation); format: cell-based; conditions: flavopiridol 75 nmol/L; bFGF- and thrombin-induced
# Protocol: Cell culture—Human aortic smooth muscle cells (HASMC) were obtained from Clonetics and were cultured as previously described^18. Cells were used at passages 5-9. Prior to performing experiments, cells were growth-arrested at 80% confluence for 48 h with medium containing 0.2% fetal bovine serum. Cell proliferation ELISA—Cell proliferation was measured by ELISA (Amersham Life Science). HASMC were grown in gelatin-coated 96-well plates and made quiescent. Cells were treated with 10 ng/ml bFGF, 2 U/ml thrombin, or vehicle for 24 h. Flavopiridol (75 nmol/L) was administered 1 h prior to growth factor treatment. 5-Bromo-2′-deoxyuridine (BrdU) was added to a final concentration of 10 μmol/L during the last 2 h of treatment. BrdU incorporation was measured as described^19. Results are expressed as mean±SEM for 12 samples per condition from two independent experiments.
# [5] = tested on: Human aortic smooth muscle cells (HASMC); assay: Cell counts of growth-arrested HASMC; format: cell-based; conditions: bFGF 10 ng/ml, flavopiridol 75 nmol/L, three days; bFGF alone 3-fold increase
# Protocol: Cell culture—Human aortic smooth muscle cells (HASMC) were obtained from Clonetics and were cultured as previously described^18. Cells were used at passages 5-9. Prior to performing experiments, cells were growth-arrested at 80% confluence for 48 h with medium containing 0.2% fetal bovine serum. Cell counts—Growth-arrested HASMC grown to 50% confluence in 6-well plates were treated with or without flavopiridol (75 nmol/L) or bFGF (10 ng/ml). At intervals after treatment, cells were trypsinized and cell numbers determined using a hemocytometer.
# [6] = tested on: Cdc2 and Cdk2; assay: Cdk activity (histone H1 kinase assay) in HASMC lysates; format: cell-based, human; conditions: flavopiridol 75 nmol/L pretreatment, 24 h
# Protocol: Cdk activity—Quiescent HASMC were treated with agonists and inhibitors for 24 h and total cell lysates were prepared as described for Western blotting. The kinase assay was performed with a histone H1 kinase assay kit (Upstate Biotechnology) following the manufacturer's instructions. In brief, 10 μl of peptide inhibitors for protein kinase C (2 μmol/L) and protein kinase A (2 μmol/L), 100 μg cell lysate, 10 μl assay buffer and 10 μl of a mixture containing 75 μmol/L magnesium chloride, 500 μmol/L ATP and 1 μCi/ml [γ-^32P]ATP were mixed in a microcentrifuge tube. After incubation at 30° C. for 10 min, aliquots were pipetted onto phosphocellulose papers. The papers were washed in 0.75% phosphoric acid, followed by measurement of cpm in a scintillation counter (Beckman). Results are expressed as the mean±SEM for three samples and are representative of three independent experiments.
# [7] = tested on: cyclin D1; assay: Western blot of cyclin D1 in HASMC; format: cell-based, human; conditions: flavopiridol 75 nmol/L pretreatment, 24 h
# Protocol: as §1
# [8] = tested on: PCNA; assay: Western blot of PCNA in HASMC; format: cell-based, human; conditions: flavopiridol 75 nmol/L pretreatment, 24 h
# Protocol: as §1
# [9] = tested on: Rb; assay: Western blot of Rb phosphorylation in HASMC; format: cell-based, human; conditions: flavopiridol 75 nmol/L, 24 h
# Protocol: as §1
# [10] = tested on: Human aortic smooth muscle cells (HASMC); assay: Trypan-blue exclusion viability; format: cell-based; conditions: flavopiridol 75 nmol/L, quiescent HASMC
# Protocol: Trypan-blue exclusion—HASMC were grown in 5-cm dishes at low confluence and growth-arrested as described. Cells were treated with flavopiridol (75 nmol/L) or tumor necrosis factor-[…] (TNF-[…]; 50 ng/ml) for the indicated times. Following the removal of the medium, 0.4% trypan blue in phosphate-buffered saline was added to the dishes. After 5 min, the cells in the dishes were counted under the microscope. Blue cells were counted as nonviable cells.
# [11] = tested on: rat carotid artery neointimal formation; conditions: for PCNA-positive nuclei in the neointima: 5 mg/kg orally
# Protocol: Rat carotid injury model—Injury to the rat carotid artery was performed essentially as described^2. Adult male Sprague-Dawley rats (400-500 g, Zivic-Miller) were anesthetized with an intraperitoneal injection of ketamine ([…]) and xylazine (4 mg/kg). The left internal carotid was then cannulated with a 2F embolectomy catheter. The balloon was inflated with saline and withdrawn across the artery three times to produce a distending and denuding injury. The right carotid artery was uninjured and served as a control of injury for each animal. Immediately following recovery from anesthesia and for four additional days thereafter, rats were administered flavopiridol (5 mg/kg in water) or water by gavage in a blinded manner. […] At specified time points after carotid injury, rats were anesthetized as above and perfusion-fixed systemically with 4% paraformaldehyde in phosphate-buffered saline. Right and left carotid arteries were removed and distended by injection of 4% paraformaldehyde through the lumen, after which they were dehydrated and stored in 70% ethanol at 4° C. Immunohistochemistry was performed as previously described^18, using the monoclonal PCNA antibody and a polyclonal anti-human Cdk2 antibody (M2-G, Santa Cruz).
# Image analysis—The extreme distal and proximal regions of each artery (approx. 500 μm) were removed. Ten intermediate cross-sections (8 μm each) taken 500 μm apart were analyzed from each artery. Slides were fixed and stained with hematoxylin and eosin as previously described^18. Using a Nikon Diaphot 300 microscope and a 4× objective, each cross-section was captured as a digital image using a Hamamatsu C5985 video camera and TCPro 2.41 (Coreco, Inc.). Medial and neointimal areas were determined using NIH Image software. Medial and neointimal boundaries were determined by one slide reviewer (A.M.) and verified in a blinded fashion by a second reviewer (C.P.). Lesion size was expressed as the neointima/media ratio. Results for each group were expressed as the mean±SEM.
# [12] = doses below the toxic threshold, Phase I human studies; cited from earlier work
# [13] = in vivo; cited from earlier work
smiles,measurement,setting,value
COc1ccc(CNc2nc(N(CCO)CCO)nc3c2ncn3C(C)C)cc1 [CVT-313],neointimal formation,[1],can also inhibit neointimal formation
"COc1cccc(-c2cc(=O)c3ccccc3o2)c1N [PD98059, reference compound]",thrombin- and bFGF-induced phosphorylation of Erk1 and Erk2,[2]; PD98059 30 μmol/L,blocked
same,thrombin- and bFGF-induced Erk1 and Erk2 activity (in-gel kinase),[3]; PD98059 30 μmol/L pretreatment 60 min,inhibitable
"CN1CC[C@H](c2c(O)cc(O)c3c(=O)cc(-c4ccccc4Cl)oc23)[C@H](O)C1 [flavopiridol, (−)-cis, -5,7-dihydroxy-2-(2-chlorophenyl)-8-[4-(3-hydroxy-1-methyl)piperidinyl]-4H-benzopyran-4-one]",inhibition of SMC proliferation,[4],near complete inhibition
same,bFGF-induced increase in cell number,[5],efficiently blocked
same,bFGF- and thrombin-induced increases in histone H1 kinase (cyclin-dependent kinase) activity,[6],totally blocked; also recorded: inhibited
same,bFGF- and thrombin-induced upregulation of cyclin D1 protein,[7],completely blocked
same,growth factor-induced increased expression of PCNA,[8],blocked
same,thrombin- and bFGF-induced hyperphosphorylation of Rb,[9],inhibited; also recorded: blocked
same,thrombin- and bFGF-induced phosphorylation of Erk1 and Erk2,[2]; flavopiridol 75 nmol/L,no effect
same,thrombin- and bFGF-induced Erk1 and Erk2 activity (in-gel kinase),[3]; flavopiridol 75 nmol/L,no effect
same,HASMC viability (trypan blue exclusion),[10],does not decrease HASMC viability
same,HASMC viability (trypan blue exclusion),[10]; listed as Flavopiridol,no effect
same,Cdk2-positive cells in the neointima vs untreated rats,"[11]; 7 and 14 days after injury, 5 mg/kg by gavage",much less common
same,reduction of neointimal area,"[11]; 7 days after injury, 5 mg/kg by gavage",35%
same,PCNA-positive nuclei in the neointima,"[11]; 7 days after injury, untreated 31.1±7.2%",11.8±1.5%
same,reduction of neointimal area,"[11]; 14 days after injury, 5 mg/kg by gavage",39%
same,PCNA-positive nuclei in the neointima,[11]; 14 days after injury,10.4±2.0%
same,signs of toxicity related to drug administration,"[11]; rat, in vivo, 5 mg/kg",no overt signs of toxicity
same,median serum concentrations,[12],425 nmol/L
same,biological half-life,[13],2.5 hrs
